This is an account of results in patent US4556653A, “Pyrido[1,5]benzodiazepinone derivatives and pharmacological activities thereof” (Dompe' Farmaceutica S.p.A., priority 1983, dated 1985).

Where only a bound is given, the exact number is not on record here.

Series [1] concerns Gastric acid secretion. Description: Gastric acid secretion in the pylorus ligated rat (antisecretory activity). Type of series: in vivo, rat (male Sprague-Dawley). Conditions: 4 hours. The procedure:
Gastric acid secretion in the pylorus ligated rat
Male Sprague-Dawley rats weighing 150.-+.5 g fasting since 48 hours were used. Pylorus ligation was performed for 4 hours. The products under exam were administered by the oral route immediately after the ligation.

Series [2] concerns Carbachole salivation. Description: Carbachole salivation in the rat. Type of series: in vivo, rat (male Sprague-Dawley). Conditions: 62.5 mg/kg p.o., one hour before carbachole 1 mg/kg i.p. As to the method: Carbachole salivation in the rat
The method cited by R. Turner: "Parasympatholytic Agents" in R. Turner "Screening Methods in Pharmacology" pag. 137. Academic Press. New York and London 1965, with slight changes, was used.
Male Sprague-Dawley rats, average weight 150.-+.5 g, fasting since 24 hours, were used.
The salivation was induced by the intraperitoneal administration of 1 mg/kg of carbachole.
The products under exam were administered orally one hour before the cholinergic stimulus.

The test system of series [3] is muscarinic receptor. Description: Interaction with muscarinic receptor (displacement of 3H-QNB bound to rat cerebral cortex receptors). Type of series: binding. Further details: unit not given here. (In general: In a radioligand displacement assay an active substance lowers the binding of a labelled ligand.)
Series [4] is described as follows: in vivo. The settings on record: mouse, po, Swiss mice, 14 days observation. The procedure:
The acute toxicity was determined by administering by oral route the substances under exam to Swiss mice; average weight 20.-+.2 g. The observation period was 14 days. 10 Animals were used for each tested dose.

[5] abbreviates: concentration 10^-5 (unit not given).
Setting [6] is: concentration 10^-6 (unit not given).
The mark [7] stands for this setting: concentration 10^-7 (unit not given).

For `CC(C(=O)N1c2ccccc2C(=O)Nc2cccnc21)N1CCCCC1` (stereo not shown) [Compound 1, 11-[2-(Piperidin-1-yl)propionyl]-5,11-dihydro-6H-pyrido-[2,3-b][1,4]benzodiazepin-6-one], the figures for the “% Antisecretory activity” value in series [1] (6.25 mg/kg p.o.), in series [1] (12.5 mg/kg p.o.) and in series [1] (25 mg/kg p.o.) were 10.3%, 36.3% and 71.3%, respectively. In addition, the “Carbachol salivation - % protection” value in series [2] is 0%. The entries for the “Interaction with muscarinic receptor” value in series [3] (setting [5]), in series [3] (setting [6]) and in series [3] (setting [7]) were 46.6, 3.96 and 0, respectively. The LD50 (usually the dose at which mortality reaches 50%) at 336 h in series [4] is over 500 mg/kg.
Regarding `CC1(C)CCCN(CC(=O)N2c3ccccc3C(=O)Nc3cccnc32)C1` [Compound 10], the figures for the “% Antisecretory activity” value in series [1] (6.25 mg/kg p.o.), in series [1] (12.5 mg/kg p.o.) and in series [1] (25 mg/kg p.o.) were 12.4%, 24.7% and 41.5%, respectively. In series [2], the “Carbachol salivation - % protection” value came out at 0%. The “Interaction with muscarinic receptor” value was 30.2 in series [3] (setting [5]), 0.2 in series [3] (setting [6]) and 0 in series [3] (setting [7]). In series [4], this molecule displayed an LD50 at 336 h of over 500 mg/kg.
In the case of `O=C1Nc2cccnc2N(C(=O)CN2CCCCCC2)c2ccccc21` [Compound 2, 11-[2-(Hexamethylenimino)acetyl]-5,11-dihydro-6H-pyrido[2,3-b][1,4]benzodiazepin-6-one], the “% Antisecretory activity” value is on record as 11.6% in series [1] (6.25 mg/kg p.o.), 33.7% in series [1] (12.5 mg/kg p.o.) and 55.2% in series [1] (25 mg/kg p.o.). Also, in series [2], the “Carbachol salivation - % protection” value stood at 100%. Moreover, the “Interaction with muscarinic receptor” value was 93.3 in series [3] (setting [5]), 49.7 in series [3] (setting [6]) and 12.8 in series [3] (setting [7]). In series [4], this molecule yielded an LD50 at 336 h of over 500 mg/kg.
`CC1CCCCN1CC(=O)N1c2ccccc2NC(=O)c2cccnc21` (stereo not shown) [Compound 5, 11-[2-(2-Methylpiperidin-1-yl)acetyl]-6,11-dihydro-5H-pyrido[2,3-b][1,5]benzodiazepin-5-one]: the “% Antisecretory activity” value in series [1] (6.25 mg/kg p.o.) stood at 18.7%; in series [1] (12.5 mg/kg p.o.) it was 58.4%; in series [1] (25 mg/kg p.o.), 66.7%. The “Carbachol salivation - % protection” value in series [2] is on record as 100%. The “Interaction with muscarinic receptor” value was determined as 96.9 in series [3] (setting [5]), 71.7 in series [3] (setting [6]) and 14.6 in series [3] (setting [7]). The LD50 at 336 h in series [4] is under 500 mg/kg.
On to `O=C1Nc2cccnc2N(C(=O)CCN2CCCCCC2)c2ccccc21` [Compound 4, 11-[3-(Hexamethylenimino)propionyl]-5,11-dihydro-6H-pyrido[2,3-b][1,4]benzodiazepin-6-one], for which the “% Antisecretory activity” value in series [1] (6.25 mg/kg p.o.) is recorded as 21.5%; in series [1] (12.5 mg/kg p.o.), 50.2%; in series [1] (25 mg/kg p.o.) it was 64.1%. The “Carbachol salivation - % protection” value in series [2] was 50%. For the same molecule, the “Interaction with muscarinic receptor” value in series [3] (setting [5]) was determined as 94.4; in series [3] (setting [6]), 54.3; in series [3] (setting [7]) it was 3.0. In series [4], this molecule displayed an LD50 at 336 h of under 500 mg/kg.
Take `CN1CCN(CC(=O)N2c3ccccc3C(=O)Nc3cccnc32)CC1` [P, Pirenzepine, reference compound]: the “% Antisecretory activity” value in series [1] (6.25 mg/kg p.o.) is 7.9%; in series [1] (12.5 mg/kg p.o.) it was 46.0%; in series [1] (25 mg/kg p.o.) it was 71.5%. The “Carbachol salivation - % protection” value in series [2] is 10%.
As for `CN1CCN(CC(=O)N2c3ccccc3C(=S)Nc3cccnc32)CC1` [Compound 6, 11-[2-(4-Methylpiperazin-1-yl)acetyl]-5,11-dihydro-6H-pyrido[2,3-b][1,4]benzodiazepin-6-thione], the “% Antisecretory activity” value is given as 7.2% in series [1] (6.25 mg/kg p.o.), 25.8% in series [1] (12.5 mg/kg p.o.) and 51.4% in series [1] (25 mg/kg p.o.). Also, the “Carbachol salivation - % protection” value in series [2] was determined as 10%. Besides, the “Interaction with muscarinic receptor” value is given as 85.5 in series [3] (setting [5]), 43.9 in series [3] (setting [6]) and 7.5 in series [3] (setting [7]). This molecule also had an LD50 at 336 h in series [4] of under 500 mg/kg.
